Some results are limits rather than exact numbers.

The test system of series [1] is AdV3. Put plainly: Anti-AdV activity assay (IFA of hexon), secondary screen, AdV3. The series is classed as cell-based, Human adenoviruses type 3. The conditions noted are these: for Selective Index AdV3: CC50/EC50, Vero cells; for EC50: 48 h, IFA of hexon, 0.02 to 5 μM.
For series [2], the system named is AdV5. Put plainly: Anti-AdV activity assay (IFA of hexon), secondary screen, AdV5. The series is classed as cell-based, Human adenoviruses type 5. The conditions noted are these: for Selective Index AdV5: CC50/EC50, Vero cells; for EC50: 48 h, IFA of hexon, 0.02 to 5 μM.
The test system of series [3] is Vero cells.
Series [4] can be described thus: in vitro. The conditions noted are these: African green monkey.
Series [5] deals with Aurora A/B/C. The conditions noted are these: cited from earlier work.
Series [6] relates to Aurora A. Also noted: method as in ref 25 = [25]. The conditions noted are these: cited from earlier work.
Series [7] relates to adenovirus 5. Further details: method as in ref 28, 31 = [28]. The settings on record: cited from earlier work.

By EC50 is commonly meant the concentration giving half of the maximal effect. Turning to `c1cncc(CN2CCC(n3ncc4c(N5CCOCC5)nc(-c5ccc6[nH]ccc6c5)nc43)CC2)c1` [WAY-600], the “Selective Index AdV3” value in series [1] is recorded as 5.51. In addition, the concentration giving a half-maximal response (EC50) in series [1] (Vero cells) came out at 560 nM; in series [2] (Vero cells), 1090 nM. Besides, in series [2], the “Selective Index AdV5” value stood at 2.86. In series [3], this molecule registered a CC50 of 3.11 µM.

In the case of `N#Cc1c(Oc2ccc(F)c(NC(=O)Cc3cccc(C(F)(F)F)c3)c2)ccc2nc(NC(=O)C3CC3)sc12` [TAK-632], the “Selective Index AdV3” value in series [1] amounted to 11.15. In addition, the EC50 is 180 nM in series [1] (Vero cells) and 160 nM in series [2] (Vero cells). For the same molecule, the “Selective Index AdV5” value in series [2] is 12.3. In series [3], the CC50 is 1.99 µM.

Consider `CC[C@@H](C)Nc1cc(C(=O)N[C@H]2C[C@H]3CC[C@@H](C2)N3c2ccc(C(=O)C3CC3)cn2)c(C)cc1C(N)=O` [XL888], for which the “Selective Index AdV3” value in series [1] was >29.69. In addition, the figures for the EC50 in series [1] (Vero cells) and in series [2] (Vero cells) were 170 nM and 480 nM, respectively. In series [2], the “Selective Index AdV5” value is on record as >10.33. In addition, the CC50 in series [3] was > 5 µM.

`Cl.Cl.O=S(=O)(NCCNC/C=C/c1ccc(Br)cc1)c1cccc2cnccc12` [H 89 2HCl]: the “Selective Index AdV3” value in series [1] is >15.97. For the same molecule, the EC50 in series [1] (Vero cells) is 310 nM; in series [2] (Vero cells), > 5000 nM. Further, in series [3], the CC50 is > 5 µM.

For the molecule `Cc1csc(-c2nnc(Nc3ccc(Oc4ncccc4-c4ccnc(N)n4)cc3)c3ccccc23)c1` [AMG-900], the “Selective Index AdV3” value in series [1] came out at 226.12. Also, in series [1] (Vero cells), the “inhibition of AdV3 (in words)” value was “potently inhibits only AdV3” and a half-maximal effect (EC50) was put at 20 nM. Besides, in series [2] (Vero cells), the “inhibition of AdV5 (in words)” value is “but not AdV5” and the 50% effective concentration (EC50) is > 5000 nM. In series [4], this molecule showed a CC50 at 48 h of 3.69 µM. Moreover, in series [5], the “selectivity for Aurora kinases than p38α, Tyk2, and JNK2” value is reported as > 10 fold.

As for `COC1(c2sc3c(N4CCOCC4)nc(-c4cnc(N)nc4)nc3c2C)COC1` [GNE-317], the EC50 is 260 nM in series [1] (Vero cells) and 590 nM in series [2] (Vero cells). Further, the CC50 in series [3] is > 5 µM.

`Cc1cc(Nc2cc(N3CCN(C)CC3)nc(/C=C/c3ccccc3)n2)n[nH]1.O=C(O)C(O)C(O)C(=O)O` [ENMD-2076 L-(+)-Tartaric acid]: the EC50 turned out to be 1350 nM in series [1] (Vero cells) and 1390 nM in series [2] (Vero cells). In addition, in series [6], the “selectivity for Aurora A than Aurora B” value is given as 25 fold. The molecule also came in with a CC50 in series [3] of 4.34 µM.

With `O=C(/C=C\n1cnc(-c2cc(C(F)(F)F)cc(C(F)(F)F)c2)n1)NNc1ccccn1` [KPT-335], the “Selective Index AdV3” value in series [1] was determined as 12.65. Besides, the EC50 in series [1] (Vero cells) amounted to 150 nM; in series [2] (Vero cells), 610 nM. Also, the “reported inhibition of replication of adenovirus 5” value in series [7] is “inhibit the replication of adenovirus 5”. In series [2], the “Selective Index AdV5” value worked out at 3.14. In addition, the CC50 at 48 h in series [4] (Vero cells) was determined as 1.9 µM.

As for `COc1ccc(-c2cc3c(C)nc(N)nc3n([C@H]3CC[C@H](OCCO)CC3)c2=O)cn1` [PF-04691502], in series [1], the “Selective Index AdV3” value was >86.01. Further, the half-maximal effective concentration (EC50) in series [1] (Vero cells) was determined as 60 nM; in series [2] (Vero cells) it was 120 nM. Further, in series [2], the “Selective Index AdV5” value is listed as >41.46. Moreover, the CC50 in series [3] is > 5 µM.

In the case of `C#Cc1cccc(Nc2ncnc3cc(OCCOC)c(OCCO)cc23)c1.Cl` [DesMethyl Erlotinib], in series [1], the “Selective Index AdV3” value is listed as >9.72. Further, the EC50 in series [1] (Vero cells) is 510 nM; in series [2] (Vero cells), > 5000 nM. Also, in series [3], the CC50 was > 5 µM.

Consider `CCNC(=O)c1[nH]nc(-c2cc(Cl)c(O)cc2O)c1-c1ccc(OC)cc1` [VER-49009], for which, in series [1], the “Selective Index AdV3” value is given as >186.00. For the same molecule, the EC50 in series [1] (Vero cells) was 30 nM; in series [2] (Vero cells), 80 nM. Further, in series [2], the “Selective Index AdV5” value is listed as >60.00. Further, the CC50 in series [3] was > 5 µM.

As to `COc1cccc(-c2cc(F)ccc2[C@H]2Cc3nc(N)nc(C)c3C(=O)N2)n1` [HSP990], the “Selective Index AdV3” value in series [1] stood at 205.19. The figures for the 50% effective concentration (EC50) in series [1] (Vero cells) and in series [2] (Vero cells) were 20 nM and 30 nM, respectively. For the same molecule, in series [2], the “Selective Index AdV5” value was determined as 148.47. For the same molecule, the CC50 in series [3] is 4.31 µM.

On to `S=C(NCc1ccc2c(c1)OCO2)N1CCN(c2ncnc3c2oc2ccccc23)CC1` [Amuvatinib], for which the “Selective Index AdV3” value in series [1] turned out to be 2.10. Besides, the concentration giving a half-maximal response (EC50) worked out at 3970 nM in series [1] (Vero cells) and 1800 nM in series [2] (Vero cells). In series [2], the “Selective Index AdV5” value is given as 4.64. The CC50 at 48 h in series [4] (Vero cells) is > 5 µM.

As for `CNC(=O)Nc1ccc(-c2nc(N3CC4CCC(C3)O4)c3cnn(C4CCC5(CC4)OCCO5)c3n2)cc1` [WYE-125132], in series [1], the “Selective Index AdV3” value is listed as >89.17. Further, the EC50 in series [1] (Vero cells) turned out to be 60 nM; in series [2] (Vero cells), 150 nM. Moreover, the “Selective Index AdV5” value in series [2] is reported as >32.47. Also, the CC50 in series [3] was > 5 µM.

Regarding `O=C(/C=C\n1cnc(-c2cc(C(F)(F)F)cc(C(F)(F)F)c2)n1)N1CC(F)(F)C1` [KPT-276], the “Selective Index AdV3” value in series [1] was >50.46. Also, the concentration for a half-maximal effect (EC50) in series [1] (Vero cells) was determined as 100 nM; in series [2] (Vero cells), 970 nM. Further, the “Selective Index AdV5” value in series [2] was >5.13. The CC50 in series [3] was > 5 µM.

Regarding `COc1ccc(-c2ccc3c(N4CCOC[C@@H]4C)nc(N4CCOC[C@@H]4C)nc3n2)cc1CO` [AZD8055], the “Selective Index AdV3” value in series [1] is listed as >44.72. Besides, the EC50 was found to be 110 nM in series [1] (Vero cells) and 160 nM in series [2] (Vero cells). Also, the “Selective Index AdV5” value in series [2] was >31.87. Moreover, in series [4], the CC50 at 48 h is > 5 µM.

With `COc1cc(Nc2ncc(F)c(Nc3ccc4c(n3)NC(=O)C(C)(C)O4)n2)cc(OC)c1OC` [R406], in series [1], the “Selective Index AdV3” value is >5.32. Besides, the half-maximal effective concentration (EC50) is 940 nM in series [1] (Vero cells) and > 5000 nM in series [2] (Vero cells). Moreover, the CC50 in series [3] is > 5 µM.

On to `C=CCNC1=C2C[C@@H](C)C[C@H](OC)[C@H](O)[C@@H](C)/C=C(\C)[C@H](OC(N)=O)[C@@H](OC)/C=C\C=C(/C)C(=O)NC(=CC1=O)C2=O` [17-AAG], for which the “Selective Index AdV3” value in series [1] is on record as >9.93. Besides, the half-maximal effective concentration (EC50) was 500 nM in series [1] (Vero cells) and > 5000 nM in series [2] (Vero cells). The “reported inhibition of replication of adenovirus 5” value in series [7] is recorded as “inhibit the replication of adenovirus 5”. Also, in series [2], the “Selective Index AdV5” value is reported as >0.46. In addition, the CC50 at 48 h in series [4] is > 5 µM.

With `N#CC1(c2ccc(NC(=O)c3cccnc3NCc3ccncc3)cc2)CCCC1` [Apatinib], the “Selective Index AdV3” value in series [1] was >15.41. The figures for the EC50 in series [1] (Vero cells) and in series [2] (Vero cells) were 320 nM and 3600 nM, respectively. Moreover, the “Selective Index AdV5” value in series [2] is recorded as >1.39. Besides, the CC50 at 48 h in series [4] was > 5 µM.

Take `COC1=C2C[C@@H](C)C[C@H](OC)[C@H](O)[C@@H](C)/C=C(\C)[C@H](OC(N)=O)[C@@H](OC)/C=C\C=C(/C)C(=O)NC(=CC1=O)C2=O` [Geldanamycin]: in series [1], the “Selective Index AdV3” value is reported as >3.38. The concentration giving a half-maximal response (EC50) in series [1] (Vero cells) is 1480 nM; in series [2] (Vero cells) it was > 5000 nM. In addition, the CC50 at 48 h in series [4] was > 5 µM.

In the case of `COc1cccc2cc(-c3nc([C@H]4CC[C@H](C(=O)O)CC4)n4ncnc(N)c34)[nH]c12` [OSI-027], the “Selective Index AdV3” value in series [1] is >3.62. For the same molecule, the concentration giving a half-maximal response (EC50) in series [1] (Vero cells) was 1380 nM; in series [2] (Vero cells), 2400 nM. Moreover, the “Selective Index AdV5” value in series [2] was >2.08. The CC50 at 48 h in series [4] was > 5 µM.

In the case of `CC(C)c1cc(-c2n[nH]c(=O)n2-c2ccc3c(ccn3C)c2)c(O)cc1O` [STA-9090], the “Selective Index AdV3” value in series [1] is on record as 97.56. Moreover, the half-maximal effective concentration (EC50) in series [1] (Vero cells) and in series [2] (Vero cells) was 50 nM throughout. Further, the “Selective Index AdV5” value in series [2] was found to be 76.73. Also, the CC50 at 48 h in series [4] (Vero cells) is 4.44 µM.

As for `Cn1c2ccccc2c2c3c(c4c5ccccc5n(CCC#N)c4c21)CNC3=O` [Go6976], the “Selective Index AdV3” value in series [1] was 6.39. In addition, the half-maximal effective concentration (EC50) came to 620 nM in series [1] (Vero cells) and 1230 nM in series [2] (Vero cells). Further, the “Selective Index AdV5” value in series [2] was determined as 3.22. Further, the CC50 at 48 h in series [4] (Vero cells) is 3.95 µM.

These data come from publication PMC9144521 (Viruses, 2022).
